{
  "source": "patent US20170304329A1",
  "about": "(THE UNIVERSITY OF KANSAS, priority 2014, published 2017)",
  "key": {"[1]": {"test_system": "T24 bladder cancer cells", "test": "Annexin V-FITC apoptosis labeling", "type": "cell-based, human", "conditions": "4 μM, up to 48 h", "procedure": "It was determined that CPX induces apoptosis. We next determined whether the compounds could induce cell death through the apoptotic pathway. For this we treated T24 bladder cancer cells with CPX (4 μM) and labeled the cells with FITC conjugated Annexin V to detect apoptotic cells. […] Cells were incubated with the indicated dose of compound for up to 48 h."}, "[2]": {"test_system": "Notch, Wnt and Hedgehog signaling pathways in T24 cells", "test": "RT-PCR array of signal transduction pathways", "type": "cell-based, human", "procedure": "We performed an RT-PCR array analyses as a preliminary study to identify the pathways affected by ciclopirox (CPX). Expression analysis was performed using RT2 Profiler™ PCR Arrays (SA Biosciences, Frederick, Md., USA) per the manufacturer's instructions. The Human signal transduction pathway finder polymerase chain reaction (PCR) array was used (cat. no. PAHS-014ZA). Briefly, Total RNA isolated from T24 cells using TRIZOL reagent was reverse transcribed with Superscript II reverse transcriptase in the presence of random hexanucleotide primers (all from Invitrogen, Carlsbad, Calif.). Complementary DNA (2 μg) was mixed with 1,275 μL RT2 SYBR Green qPCR Master Mix (PA-010; SA Biosciences) to make up a total volume of 2,550 μL. Each well received 25 μL of this mix. qPCR was performed on an Bio-Rad CFX machine following detection protocols recommended by SA Biosciences. Changes in mRNA expression were expressed as fold change relative to control."}, "[3]": {"test_system": "253JBV cells", "test": "Cell proliferation, hexosaminidase assay", "type": "cell-based, human", "conditions": "for IC50: 48 h", "procedure": "(§1) To determine the effect of CPX on bladder cancer cell proliferation in T24 (MIBC) and 253-JBV (NMIBC) cells, 5,000 cells per well were seeded on to 96-well plates and grown overnight. The cells were then treated with increasing doses of CPX in RPMI media containing 10% FBS. Analysis of cell proliferation after the treatment period was estimated by the hexosaminidase assay. Briefly, the medium was removed and hexosaminidase substrate solution in citrate buffer pH 5 (7.5 mM), p-nitrophenol-N-acetyl-beta-D-glucosaminidase (Sigma Aldrich) was added at 75 μL per well. The plate was incubated at 37° C. in 100% humidity for 30 minutes. The reaction was stopped with 112.5 μL of 50 mM glycine containing 5 mM of EDTA (pH 10.4). The absorbance was measured at 405 nm. Experiments were conducted at n=6, and then repeated at least three times. The data were analyzed as percent of control, where the control wells were treated with equivalent amounts of DMSO alone. For IC50 calculations, a plot between the drug concentration and hexosaminidase activity was generated and the data was fitted either linearly or exponentially. The best fit was used for further processing of data.\n(§2) We determined and compared the effect of CPX with CPX-POM and CPX-glucuronide in vitro by performing proliferation assay. To determine the effect of CPX, CPX-POM and CPX-glucuronide on bladder cancer cell proliferation in T24 (MIBC) and 253-JBV (NMIBC) cells, 5,000 cells per well were seeded on to 96-well plates and grown overnight. The cells were then treated with increasing doses of CPX, CPX-POM and CPX-glucuronide in RPMI media containing 10% FBS. Analysis of cell proliferation after the treatment period was estimated by the hexosaminidase assay. Briefly, the medium was removed and hexosaminidase substrate solution in citrate buffer pH 5 (7.5 mM), p-nitrophenol-N-acetyl-beta-D-glucosaminidase (Sigma Aldrich) was added at 75 μL per well. The plate was incubated at 37° C. in 100% humidity for 30 minutes. The reaction was stopped with 112.5 μL of 50 mM glycine containing 5 mM of EDTA (pH 10.4). The absorbance was measured at 405 nm.\n(§3) Experiments were conducted at n=6, and then repeated at least three times. The data were analyzed as percent of control, where the control wells were treated with equivalent amounts of DMSO alone. For IC50 so calculations, a plot between the drug concentration and hexosaminidase activity was generated and the data was fitted either linearly or exponentially."}, "[4]": {"test_system": "T24 cells", "test": "Cell proliferation, hexosaminidase assay", "type": "cell-based, human", "procedure": "as §1, §2, §3"}, "[5]": {"test_system": "T24 cells", "test": "Flow cytometry-based cell cycle analysis", "design": "species or system human", "procedure": "Flow cytometry-based cell cycle analysis studies were conducted to determine the effect of ciclopirox (CPX) on cell cycle progression in T24 cells (data not shown). […] At 1×IC50 and 2×IC50 concentrations, CPX arrest cells at G0/G1 phase. Cells were treated with CPX and a flow cytometer based analysis was performed."}, "[6]": {"test_system": "T24 bladder cancer cells", "test": "Clonogenicity assay", "type": "cell-based, human", "conditions": "48 h treatment, then 10 days", "procedure": "(§4) We next determined the long-term effect of ciclopirox (CPX) on bladder cancer cells using the clonogenicity assay. For this assay, 6-well plates were seeded with 500 viable cells and were allowed to grow for overnight. The cells were then incubated in the presence or absence of various concentrations (1 and 5 μM) of CPX for 48 h. The CPX containing medium was then removed, and the cells were washed in PBS and incubated for an additional 10 days in complete medium. Each treatment was done in triplicate. The colonies obtained were washed with PBS and fixed in 10% formalin for 10 min at room temperature and then washed with PBS followed by staining with crystal violet. The colonies were compared to untreated cells.\n(§5) The fresh medium was replaced and allowed to grow for 10 days. The colonies were stained with crystal violet and compared to untreated cells."}, "[7]": {"test_system": "253-JBV bladder cancer cells", "test": "Clonogenicity assay", "type": "cell-based, human", "conditions": "48 h treatment, then 10 days", "procedure": "as §4, §5"}},
  "data": [
    {"smiles": "Cc1cc(C2CCCCC2)n(O)c(=O)c1", "note": "[CPX, 6-cyclohexyl-1-hydroxy-4-methylpyridin-2(1H)-one]", "values": [
      {"measurement": "cell death (Annexin V-FITC labeled cells)", "setting": "[1]", "value": "significant increase in cell death"},
      {"measurement": "mRNA expression of CSC signaling pathway genes", "setting": "[2]", "value": "significantly reduced the mRNA expression of Notch and its downstream signaling proteins"},
      {"measurement": "IC50", "setting": "[3]", "value": 3000, "unit": "nM"},
      {"measurement": "IC50", "setting": "[3]; Homo sapiens", "value": 2000, "unit": "nM"},
      {"measurement": "effect on cell proliferation", "setting": "[3]; up to 72 h", "value": "significant dose- and time-dependent decrease in cell proliferation"},
      {"measurement": "IC50", "setting": "[4]; Homo sapiens, T-24, 48 h, 48 h", "value": 4, "unit": "µM"},
      {"measurement": "effect on cell proliferation", "setting": "[4]; up to 72 h", "value": "significant dose- and time-dependent decrease in cell proliferation"},
      {"measurement": "cell cycle progression", "setting": "[5]", "value": "induces S-phase cell cycle arrest"},
      {"measurement": "colony formation", "setting": "[6]", "value": "inhibited the number and size of colonies compared to control"},
      {"measurement": "colony formation", "setting": "[7]", "value": "inhibited the number and size of colonies compared to control"}
    ]}
  ]
}
